Source: patent publication US9746463B2 (THE TRUSTEES OF COLUMBIA UNIVERSITY IN THE CITY OF NEW YORK, priority 2006, dated 2017)
Ends that are not written are not given here.

What was measured:
[1] = Osteocalcin subcutaneous infusion in wt mice: glycemia; type: in vivo, mouse; conditions: wild type mice, 0.3, 1 and 3 ng/hour subcutaneously for 28 days, vs PBS
Method: FIG. 10. […] Indicated doses of recombinant osteocalcin or PBS were infused subcutaneously for 28 days in wt mice. Blood glucose was measured at indicated days.
An in vivo experiment was conducted in which the effect of undercarboxylated osteocalcin on glycemia was monitored. Wild type mice were infused with 3 different amounts of mouse recombinant undercarboxylated osteocalcin or placebo (PBS) subcutaneously for 28 days (0.3, 1 and 3 ng/hour).

[2] = tested on: Insulin and Cyclin D1 expression in WT islets; assay: Insulin and Cyclin D1 expression in islets cultured with uncarboxylated osteocalcin; type: cell-based, mouse; conditions: 0.3 ng/ml (FIG. 7L)
Method: FIG. 7A-O. Esp−/− Mice Are a Model of Increased Osteocalcin Bioactivity. (FIGS. 7A-G) Comparison between 6-week-old WT, Esp−/, Ocn+/−, and Esp−/−; Ocn+/− mice. (FIG. 7A) Blood glucose levels. (FIG. 7B) Serum insulin levels. (FIG. 7C) Serum adiponectin levels. (FIG. 7D) GTT. (FIG. 7E) ITT. (FIG. 7F) GSIS test. (FIG. 7G) Quantification of the number of Ki67-immunoreactive cells in pancreatic islets. […] (FIG. 7K) Expression of Adiponectin in WT adipocytes cultured in presence of vehicle or of 1 ng/ml of commercially available carboxylated osteocalcin (Immunotopics) or bacterially produced uncarboxylated osteocalcin. (FIG. 7L) Expression of Insulin and Cyclin D1 in WT islets cultured in presence of 0.3 ng/ml of bacterially produced uncarboxylated osteocalcin or vehicle. (FIG. 7M) Metabolic parameters and total serum osteocalcin levels in control and obese patients. (FIG. 7N-O) Quantification of carboxylated osteocalcin (HA-bound osteocalcin) in control and obese patients. In (FIGS. 7A)-(C) and (FIGS. G)-(L): *p<0.05 versus WT (Student's t test); in (FIG. D)-(F), °p<0.05 versus WT and *p % 0.001 versus WT (ANOVA followed by post hoc analysis).
Mouse islets and adipocytes isolation. Islets were isolated using a Histopaque gradient (1077, Sigma). […]

[3] = Osteocalcin subcutaneous infusion in GTG-induced obesity; type: in vivo, mouse
Method: FIG. 14. […] Wt mice were injected with gold thioglucose (GTG) or vehicle to induce hyperphagia and obesity. Two weeks later they were implanted with subcutaneous osmotic pumps infusing […] of recombinant osteocalcin or PBS for 28 days before. Body weight gain was recorded thereafter at indicated days.
The effect of uncarboxylated osteocalcin on GTG-induced obesity was investigated (FIG. 14). Wild type mice were injected with gold thioglucose (GTG) to induce hyperphagia and obesity or vehicle. Two weeks later they were implanted with subcutaneous osmotic pumps infusing 1 ng/hr of recombinant uncarboxylated osteocalcin or PBS for 28 days. […] At 28 days, body weight was reduced by about 15% with uncarboxylated osteocalcin treatment.

[4] = Osteocalcin subcutaneous infusion in wt mice: insulin sensitivity after insulin injection; type: in vivo, mouse; conditions: wild type mice, 0.3 or 3 ng/hour subcutaneously for 18 days, then insulin injection, 0-120 minutes, vs PBS
Method: FIG. 12. […] Wt mice were infused subcutaneously with indicated doses of recombinant osteocalcin or PBS for 18 days before receiving a single injection of insulin. Blood glucose was measured thereafter at indicated times.
(§1) Metabolic studies. For glucose tolerance test (GTT), glucose (2 g/kg body weight (BW)) was injected intraperitoneally (IP) after an overnight fast and blood glucose was monitored using blood glucose strips and the Accu-Check glucometer (Roche) at indicated times. For glucose stimulated insulin secretion test (GSIS), glucose (3 g/kg BW) was injected IP after an overnight fast; sera were collected from tails and insulin measured as described (Mauvais-Jarvis et al., 2000). For insulin tolerance test (ITT), mice were fasted for six hours, injected IP with insulin (0.2 U/kg BW) and blood glucose levels were measured at indicated times as described (Mauvais-Jarvis et al., 2002). ITT data are presented as percentage of initial blood glucose concentration. […] Streptozotocin ([…] single injection, Sigma) was injected IP and blood glucose measured as described above every 2 days thereafter. […] Food intake was measured using metabolic cages as the daily change of food weight. Energy expenditure was measured using metabolic cages connected to a calorimeter (Columbus Instrument). Heat values (Kcal/Hr) were recorded over 2 days and reported to each mouse BW. […]

[5] = Osteocalcin subcutaneous infusion in wt mice: glucose tolerance after glucose injection; type: in vivo, mouse; conditions: wild type mice, 0.3 or 3 ng/hour subcutaneously for 14 days, then glucose injection, 120 minutes, vs PBS
Method: FIG. 11. […] Wt mice were infused subcutaneously with indicated doses of recombinant osteocalcin or PBS for 14 days before receiving a single injection of glucose. Blood glucose was measured thereafter at indicated times.
as §1

[6] = listed as recombinant osteocalcin

uncarboxylated osteocalcin: Recombinant mouse osteocalcin bacterially produced as GST fusion, cleaved with thrombin; completely undercarboxylated at all three sites (YLGASVPSPDPLEPTREQCELNPACDELSDQYGLKTAYKRIYGITI; not fully specified; ends and bridges not checked; UniProt P86546 50-95, looked up)
glycemia (blood glucose) [1, 6]: decreases glycemia
glycemia (blood glucose) ([1]; listed as undercarboxylated osteocalcin): decreased glycemia
expression of Cyclin D1, marker of beta-cell proliferation [2]: induced
insulin expression [2]: induced insulin expression
body weight gain ([3]; GTG-injected wild type mice, 1 ng/hr by osmotic pump for 28 days, from 7 days on, vs PBS): significantly reduced
reduction of body weight ([3]; GTG-injected wild type mice, 1 ng/hr, at 28 days): about 15%
GTG-induced obesity ([3]; wt mice, infusion for 28 days (figure legend)): prevents GTG-induced obesity
insulin sensitivity [4]: increased
insulin sensitivity [4, 6]: increases insulin sensitivity
glucose tolerance [5]: increased glucose tolerance
glucose tolerance [5, 6]: increases glucose tolerance
